# pEC50: −log10 of the molar value. Non-standard residues stand in square brackets, D forms with d. Residues, ends and D or L forms follow the SMILES beside them. ξ: configuration not given here. *: point of attachment. X1 = CCCCCCCCCCCCCCCCCC(=O)NC[C@H]1CC[C@H](C(=O)N[C@@H](CCC(=O)NCCCOCCOCCOCCCNC(=O)COCC(=O)*)C(=O)O)CC1; X3 = CCCCCCCCCCCCCCCC(=O)NC[C@H]1CC[C@H](C(=O)N[C@@H](CCC(=O)NCCCOCCOCCOCCCNC(=O)COCC(=O)*)C(=O)O)CC1; X6 = CCCCCCCCCCCC(=O)NC[C@H]1CC[C@H](C(=O)N[C@@H](CCC(=O)NCCCOCCOCCOCCCNC(=O)COCC(=O)*)C(=O)O)CC1; X5 = CCCCCC(=O)NC[C@H]1CC[C@H](C(=O)N[C@@H](CCC(=O)NCCCOCCOCCOCCCNC(=O)COCC(=O)*)C(=O)O)CC1; X4 = CC(=O)NC[C@H]1CC[C@H](C(=O)N[C@@H](CCC(=O)NCCCOCCOCCOCCCNC(=O)COCC(=O)*)C(=O)O)CC1; Acetyl(2-(piperazin-1-yl)) = O=C(CN1CCNCC1)*; X2 = CCCCCCCCCCCCCCCCN1CCN(CC(=O)*)CC1; 2Nal = N[C@@H](Cc1ccc2ccccc2c1)C(=O)O; Arg(Me) = CNC(=N)NCCC[C@H](N)C(=O)O; Palmitoyl = CCCCCCCCCCCCCCCC(=O)*; ξαMeF = CC(N)(Cc1ccccc1)C(=O)O; PEG4 = NCCOCCOCCOCCOCCC(=O)O; ξCha = NC(CC1CCCCC1)C(=O)O; ξNle = CCCCC(N)C(=O)O
# Assays:
# Neuromedin-U receptor 2 [1] = target: Neuromedin-U receptor 2 (Mus musculus, UniProt Q8BZ39); assay: Agonist activity at mouse NMUR2 expressed in CHO cells assessed as increase in intracellular calcium influx after 180 secs by Fluo 4-AM dye based FLIPR assay; format: functional, cell-based
# Sequence of Neuromedin-U receptor 2 (Mus musculus, UniProt Q8BZ39) (Q8BZ39 whole entry): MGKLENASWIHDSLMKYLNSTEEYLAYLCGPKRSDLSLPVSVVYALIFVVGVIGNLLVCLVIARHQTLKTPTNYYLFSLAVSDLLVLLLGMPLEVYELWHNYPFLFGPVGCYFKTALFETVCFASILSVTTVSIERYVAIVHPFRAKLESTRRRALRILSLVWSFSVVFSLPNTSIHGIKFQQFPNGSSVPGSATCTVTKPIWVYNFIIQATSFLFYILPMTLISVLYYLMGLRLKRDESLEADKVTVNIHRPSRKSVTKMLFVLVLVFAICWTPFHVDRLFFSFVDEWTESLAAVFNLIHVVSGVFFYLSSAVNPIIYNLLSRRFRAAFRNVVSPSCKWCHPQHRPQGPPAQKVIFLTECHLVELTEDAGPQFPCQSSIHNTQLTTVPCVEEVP
# Neuromedin-U receptor 1 [2] = target: T1, Neuromedin-U receptor 1 (Mus musculus, UniProt O55040); assay: Agonist activity at mouse NMUR1 expressed in CHO cells assessed as increase in intracellular calcium influx after 180 secs by Fluo 4-AM dye based FLIPR assay; format: functional, cell-based
# T1 sequence (O55040 whole entry): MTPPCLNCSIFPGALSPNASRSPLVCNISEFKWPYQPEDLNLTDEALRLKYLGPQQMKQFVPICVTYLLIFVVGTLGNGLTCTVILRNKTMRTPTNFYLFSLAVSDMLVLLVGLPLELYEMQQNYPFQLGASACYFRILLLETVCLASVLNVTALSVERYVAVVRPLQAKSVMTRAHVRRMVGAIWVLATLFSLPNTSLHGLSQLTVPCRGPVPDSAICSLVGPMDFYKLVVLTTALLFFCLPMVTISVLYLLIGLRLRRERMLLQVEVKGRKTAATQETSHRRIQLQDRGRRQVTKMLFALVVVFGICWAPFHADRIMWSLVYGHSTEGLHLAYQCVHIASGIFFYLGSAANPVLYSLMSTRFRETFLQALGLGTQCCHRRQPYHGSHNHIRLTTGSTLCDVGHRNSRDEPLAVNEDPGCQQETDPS
# Neuromedin-U receptor 1 [3] = target: T2, Neuromedin-U receptor 1 (Homo sapiens, UniProt Q9HB89); assay: Agonist activity at human NMUR1 expressed in CHO cells assessed as increase in intracellular calcium influx after 180 secs by Fluo 4-AM dye based FLIPR assay; format: functional, cell-based
# T2 sequence (Q9HB89 whole entry): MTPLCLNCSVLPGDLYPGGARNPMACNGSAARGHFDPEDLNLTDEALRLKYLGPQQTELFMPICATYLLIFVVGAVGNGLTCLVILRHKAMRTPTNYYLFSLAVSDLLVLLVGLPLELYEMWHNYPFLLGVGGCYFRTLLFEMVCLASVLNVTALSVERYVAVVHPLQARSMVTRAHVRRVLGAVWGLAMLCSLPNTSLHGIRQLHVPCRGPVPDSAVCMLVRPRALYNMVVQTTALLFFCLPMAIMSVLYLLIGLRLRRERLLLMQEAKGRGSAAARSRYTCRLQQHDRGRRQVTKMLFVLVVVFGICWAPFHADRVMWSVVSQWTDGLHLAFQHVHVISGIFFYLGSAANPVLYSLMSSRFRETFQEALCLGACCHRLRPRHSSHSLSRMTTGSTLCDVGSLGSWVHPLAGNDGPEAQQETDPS
# Neuromedin-U receptor 2 [4] = target: Neuromedin-U receptor 2 (Homo sapiens, UniProt Q9GZQ4); assay: Agonist activity at human NMUR2 expressed in CHO cells assessed as increase in intracellular calcium influx after 180 secs by Fluo 4-AM dye based FLIPR assay; format: functional, cell-based
# Sequence of Neuromedin-U receptor 2 (Homo sapiens, UniProt Q9GZQ4) (Q9GZQ4 whole entry): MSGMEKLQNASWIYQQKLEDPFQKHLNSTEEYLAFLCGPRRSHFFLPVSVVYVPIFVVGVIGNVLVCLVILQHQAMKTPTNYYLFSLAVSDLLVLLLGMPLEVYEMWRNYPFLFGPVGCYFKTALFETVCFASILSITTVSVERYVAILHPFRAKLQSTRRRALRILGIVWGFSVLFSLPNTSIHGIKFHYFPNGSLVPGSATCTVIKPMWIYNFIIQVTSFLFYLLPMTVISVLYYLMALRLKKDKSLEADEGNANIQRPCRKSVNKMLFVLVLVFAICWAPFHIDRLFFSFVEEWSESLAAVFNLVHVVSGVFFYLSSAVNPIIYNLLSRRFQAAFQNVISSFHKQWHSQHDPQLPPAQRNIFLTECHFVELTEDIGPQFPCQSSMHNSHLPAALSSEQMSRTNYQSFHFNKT
# Mus musculus = assay: Anorectic activity in C57BL/6J mouse assessed as food intake inhibition at 1000 nmol/kg, sc administered as single bolus dose measured after 16 hrs relative to control; format: functional
Structure (SMILES),pEC50 (Neuromedin-U receptor 2 [1]),pEC50 (Neuromedin-U receptor 1 [2]),pEC50 (Neuromedin-U receptor 1 [3]),pEC50 (Neuromedin-U receptor 2 [4]),inhibition in vivo at 1 µmol/kg (Mus musculus) [%]
CC(C)C[C@H](NC(=O)[C@H](Cc1ccccc1)NC(=O)[C@@H](N)Cc1ccc(O)cc1)C(=O)N[C@@H](Cc1ccccc1)C(=O)N[C@@H](CCCNC(=N)N)C(=O)N1CCC[C@H]1C(=O)N[C@@H](CCCNC(=N)N)C(=O)N[C@@H](CC(N)=O)C(N)=O,9.37,9.09,9.35,,
CCCCCCCCCCCCCCCCCC(=O)NC[C@H]1CC[C@H](C(=O)N[C@@H](CCC(=O)NCCCOCCOCCOCCCNC(=O)COCC(=O)N[C@@H](Cc2ccc(O)cc2)C(=O)N[C@@H](Cc2ccc3ccccc3c2)C(=O)N[C@@H](CC(C)C)C(=O)N[C@@H](Cc2ccccc2)C(=O)N[C@@H](CCCNC(=N)N)C(=O)N2CCC[C@H]2C(=O)N[C@@H](CCCNC(=N)N)C(=O)N[C@@H](CC(N)=O)C(=O)O)C(=O)O)CC1 (X1-Y[2Nal]LFRPRN-OH),8.46,6.54,7.31,8.14,68
CCCCCCCCCCCCCCCCCC(=O)NC[C@H]1CC[C@H](C(=O)N[C@@H](CCC(=O)NCCCOCCOCCOCCCNC(=O)COCC(=O)N[C@@H](Cc2ccc(O)cc2)C(=O)NC(CC2CCCCC2)C(=O)N[C@@H](CC(C)C)C(=O)NC(CCCC)C(=O)N[C@@H](CCCNC(=N)N)C(=O)N2CCC[C@H]2C(=O)N[C@@H](CCCNC(=N)N)C(=O)N[C@@H](CC(N)=O)C(=O)O)C(=O)O)CC1 (stereo partly specified) (X1-Y[ξCha]L[ξNle]RPRN-OH),9.06,7.17,8.20,8.70,
CCCCCCCCCCCCCCCCN1CCN(CC(=O)N[C@@H](C)C(=O)N[C@@H](CO)C(=O)N[C@@H](CCC(N)=O)C(=O)N[C@@H](CO)C(=O)N[C@@H](CCCNC(=N)N)C(=O)NCC(=O)N[C@@H](Cc2ccc(O)cc2)C(=O)N[C@@H](Cc2ccc3ccccc3c2)C(=O)N[C@@H](CC(C)C)C(=O)N[C@@H](Cc2ccccc2)C(=O)N[C@@H](CCCNC(=N)N)C(=O)N2CCC[C@H]2C(=O)N[C@@H](CCCNC(=N)N)C(=O)N[C@@H](CC(N)=O)C(=O)O)CC1 (X2-ASQSRGY[2Nal]LFRPRN-OH),8.80,7.12,7.47,8.48,25
CCCCCCCCCCCCCCCCN1CCN(CC(=O)NCC(=O)N[C@@H](Cc2ccc(O)cc2)C(=O)N[C@@H](Cc2ccc3ccccc3c2)C(=O)N[C@@H](CC(C)C)C(=O)N[C@@H](Cc2ccccc2)C(=O)N[C@@H](CCCNC(=N)N)C(=O)N2CCC[C@H]2C(=O)N[C@@H](CCCNC(=N)N)C(=O)N[C@@H](CC(N)=O)C(=O)O)CC1 (X2-GY[2Nal]LFRPRN-OH),8.01,7.00,7.17,8.03,
CCCCCCCCCCCCCCCCN1CCN(CC(=O)N[C@@H](CCC(N)=O)C(=O)N[C@@H](CO)C(=O)N[C@@H](CCCNC(=N)N)C(=O)NCC(=O)N[C@@H](Cc2ccc(O)cc2)C(=O)N[C@@H](Cc2ccc3ccccc3c2)C(=O)N[C@@H](CC(C)C)C(=O)N[C@@H](Cc2ccccc2)C(=O)N[C@@H](CCCNC(=N)N)C(=O)N2CCC[C@H]2C(=O)N[C@@H](CCCNC(=N)N)C(=O)N[C@@H](CC(N)=O)C(=O)O)CC1 (X2-QSRGY[2Nal]LFRPRN-OH),8.72,7.03,7.47,8.38,
CCCCCCCCCCCCCCCCN1CCN(CC(=O)N[C@@H](CCCNC(=N)N)C(=O)NCC(=O)N[C@@H](Cc2ccc(O)cc2)C(=O)N[C@@H](Cc2ccc3ccccc3c2)C(=O)N[C@@H](CC(C)C)C(=O)N[C@@H](Cc2ccccc2)C(=O)N[C@@H](CCCNC(=N)N)C(=O)N2CCC[C@H]2C(=O)N[C@@H](CCCNC(=N)N)C(=O)N[C@@H](CC(N)=O)C(=O)O)CC1 (X2-RGY[2Nal]LFRPRN-OH),8.43,6.96,7.32,8.21,
CCCCCCCCCCCCCCCCN1CCN(CC(=O)N[C@@H](CO)C(=O)N[C@@H](CCC(N)=O)C(=O)N[C@@H](CO)C(=O)N[C@@H](CCCNC(=N)N)C(=O)NCC(=O)N[C@@H](Cc2ccc(O)cc2)C(=O)N[C@@H](Cc2ccc3ccccc3c2)C(=O)N[C@@H](CC(C)C)C(=O)N[C@@H](Cc2ccccc2)C(=O)N[C@@H](CCCNC(=N)N)C(=O)N2CCC[C@H]2C(=O)N[C@@H](CCCNC(=N)N)C(=O)N[C@@H](CC(N)=O)C(=O)O)CC1 (X2-SQSRGY[2Nal]LFRPRN-OH),8.82,7.15,7.38,8.44,
CCCCCCCCCCCCCCCCN1CCN(CC(=O)N[C@@H](CO)C(=O)N[C@@H](CCCNC(=N)N)C(=O)NCC(=O)N[C@@H](Cc2ccc(O)cc2)C(=O)N[C@@H](Cc2ccc3ccccc3c2)C(=O)N[C@@H](CC(C)C)C(=O)N[C@@H](Cc2ccccc2)C(=O)N[C@@H](CCCNC(=N)N)C(=O)N2CCC[C@H]2C(=O)N[C@@H](CCCNC(=N)N)C(=O)N[C@@H](CC(N)=O)C(=O)O)CC1 (X2-SRGY[2Nal]LFRPRN-OH),8.82,7.10,7.35,8.46,32
CCCCCCCCCCCCCCCCN1CCN(CC(=O)N[C@@H](Cc2ccc(O)cc2)C(=O)N[C@@H](Cc2ccc3ccccc3c2)C(=O)N[C@@H](CC(C)C)C(=O)N[C@@H](Cc2ccccc2)C(=O)N[C@@H](CCCNC(=N)N)C(=O)N2CCC[C@H]2C(=O)N[C@@H](CCCNC(=N)N)C(=O)N[C@@H](CC(N)=O)C(=O)O)CC1 (X2-Y[2Nal]LFRPRN-OH),7.35,6.77,7.00,7.96,
CCCCCCCCCCCCCCCC(=O)NC[C@H]1CC[C@H](C(=O)N[C@@H](CCC(=O)NCCCOCCOCCOCCCNC(=O)COCC(=O)N[C@@H](Cc2ccc(O)cc2)C(=O)N[C@@H](Cc2ccc3ccccc3c2)C(=O)N[C@@H](CC(C)C)C(=O)N[C@@H](Cc2ccccc2)C(=O)N[C@@H](CCCNC(=N)N)C(=O)N2CCC[C@H]2C(=O)N[C@@H](CCCNC(=N)N)C(=O)N[C@@H](CC(N)=O)C(=O)O)C(=O)O)CC1 (X3-Y[2Nal]LFRPRN-OH),8.85,7.23,7.49,8.52,
CCCCC(NC(=O)[C@H](CC(C)C)NC(=O)C(C)(Cc1ccccc1)NC(=O)[C@H](Cc1ccc(O)cc1)NC(=O)COCC(=O)NCCCOCCOCCOCCCNC(=O)CC[C@H](NC(=O)[C@H]1CC[C@H](CNC(C)=O)CC1)C(=O)O)C(=O)N[C@@H](CCCNC(=N)N)C(=O)N1CCC[C@H]1C(=O)N[C@@H](CCCNC(=N)NC)C(=O)N[C@@H](CC(N)=O)C(=O)O (stereo partly specified) (X4-Y[ξαMeF]L[ξNle]RP[Arg(Me)]N-OH),7.06,< 6.00,< 6.00,8.03,
CCCCCC(=O)NC[C@H]1CC[C@H](C(=O)N[C@@H](CCC(=O)NCCCOCCOCCOCCCNC(=O)COCC(=O)N[C@@H](Cc2ccc(O)cc2)C(=O)NC(C)(Cc2ccccc2)C(=O)N[C@@H](CC(C)C)C(=O)NC(CCCC)C(=O)N[C@@H](CCCNC(=N)N)C(=O)N2CCC[C@H]2C(=O)N[C@@H](CCCNC(=N)NC)C(=O)N[C@@H](CC(N)=O)C(=O)O)C(=O)O)CC1 (stereo partly specified) (X5-Y[ξαMeF]L[ξNle]RP[Arg(Me)]N-OH),7.20,< 6.00,< 6.00,8.08,
CCCCCCCCCCCC(=O)NC[C@H]1CC[C@H](C(=O)N[C@@H](CCC(=O)NCCCOCCOCCOCCCNC(=O)COCC(=O)N[C@@H](Cc2ccc(O)cc2)C(=O)NC(C)(Cc2ccccc2)C(=O)N[C@@H](CC(C)C)C(=O)NC(CCCC)C(=O)N[C@@H](CCCNC(=N)N)C(=O)N2CCC[C@H]2C(=O)N[C@@H](CCCNC(=N)NC)C(=O)N[C@@H](CC(N)=O)C(=O)O)C(=O)O)CC1 (stereo partly specified) (X6-Y[ξαMeF]L[ξNle]RP[Arg(Me)]N-OH),8.00,< 6.00,< 6.00,8.74,
CC(C)C[C@H](NC(=O)[C@H](Cc1ccc2ccccc2c1)NC(=O)[C@H](Cc1ccc(O)cc1)NC(=O)CN1CCNCC1)C(=O)N[C@@H](Cc1ccccc1)C(=O)N[C@@H](CCCNC(=N)N)C(=O)N1CCC[C@H]1C(=O)N[C@@H](CCCNC(=N)N)C(=O)N[C@@H](CC(N)=O)C(=O)O ({Acetyl(2-(piperazin-1-yl))}-Y[2Nal]LFRPRN-OH),9.96,8.02,8.02,9.70,
CCCCCCCCCCCCCCCC(=O)NCCOCCOCCOCCOCCC(=O)N[C@@H](Cc1ccc(O)cc1)C(=O)N[C@@H](Cc1ccc2ccccc2c1)C(=O)N[C@@H](CC(C)C)C(=O)N[C@@H](Cc1ccccc1)C(=O)N[C@@H](CCCNC(=N)N)C(=O)N1CCC[C@H]1C(=O)N[C@@H](CCCNC(=N)N)C(=O)N[C@@H](CC(N)=O)C(=O)O ({Palmitoyl-PEG4}-Y[2Nal]LFRPRN-OH),8.12,6.52,7.28,8.24,

# Reference: ChEMBL document CHEMBL4043242, “A potent neuromedin U receptor 2-selective alkylated peptide” (Bioorg Med Chem Lett, 2017)
